From ChEMBL document CHEMBL1140742, “Discovery of novel chemotypes to a G-protein-coupled receptor through ligand-steered homology modeling and structure-based virtual screening” (J Med Chem, 2008) come the findings set out here.

T1 sequence (Q99705 whole entry): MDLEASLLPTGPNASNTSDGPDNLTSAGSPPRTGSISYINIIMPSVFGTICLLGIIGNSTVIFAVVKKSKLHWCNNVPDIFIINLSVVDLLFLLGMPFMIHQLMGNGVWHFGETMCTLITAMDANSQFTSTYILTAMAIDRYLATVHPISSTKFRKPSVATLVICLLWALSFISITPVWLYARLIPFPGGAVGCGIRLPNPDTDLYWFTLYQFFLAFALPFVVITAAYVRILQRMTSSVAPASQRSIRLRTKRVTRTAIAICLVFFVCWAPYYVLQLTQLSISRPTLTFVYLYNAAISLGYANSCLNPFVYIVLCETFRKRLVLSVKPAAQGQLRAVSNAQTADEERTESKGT

One assay has as its target T1, Melanin-concentrating hormone receptor 1 (Homo sapiens, UniProt Q99705). The experiment in a line: Displacement of [125I]MCH from human MCHR1 expressed in CHO cell membranes.
The compound `COc1ccc(/C=C2/SC(=S)N(CCCC(=O)OCCN(C)C)C2=O)cc1` gave a Ki of 8.1 µM.

Take `Cc1ccccc1SCN(CCc1ccccc1)CSc1ccccc1C`: the Ki was determined as 7.5 µM. As for `Cc1ccc(S(=O)(=O)CN(Cc2ccccc2)CS(=O)(=O)c2ccc(C)cc2)cc1`, the Ki amounted to 7.5 µM. That is a single-digit micromolar value. `CCCCCCN(CS(=O)(=O)c1ccc(C)cc1)CS(=O)(=O)c1ccc(C)cc1` displayed a Ki of 1.7 µM. For the compound `Cc1ccccc1Nc1nc(N)nc(CN(C)Cc2cccc(Cl)c2)n1`, the Ki came out at 7.8 µM.

The compound `CCN(CC)Cc1cc(N=C2NS(=O)(=O)c3ccccc32)ccc1OC(=O)c1ccc(OC)cc1` yielded a Ki of 11.3 µM.

The compound `CCN(CC)CCCn1c(-c2ccc(Br)cc2)cn2c3ccccc3nc12` registered a Ki of 11.9 µM. This Ki and that of the compound before are within 1.5-fold of each other.

Turning to `CC(C)N(CCCNC(=O)c1cc2sccc2n1C)Cc1ccccc1`, the Ki turned out to be 20.9 µM.

The next assay concerns the target T1, Melanin-concentrating hormone receptor 1. Briefly: Displacement of [125I]MCH from human MCHR1 expressed in CHO cell membranes at 5 ug/ml.
For `Cc1ccc(S(=O)(=O)CN(CS(=O)(=O)c2ccc(C)cc2)c2ccc(Br)cc2F)cc1`, the inhibition was found to be 10%. `CCOc1ccccc1Nc1nc(N)nc(CN(C)C2CCCCC2)n1`: the inhibition came out at 16%. On to `O=C(c1cc2sccc2n1Cc1ccc(F)cc1)N(CCCN1CCOCC1)Cc1cccnc1`, for which the inhibition stood at 44%. For the compound `CCC(=O)Oc1ccc(NC2=NS(=O)(=O)c3ccccc32)cc1`, the inhibition is 31%. Turning to `COc1ccc(Nc2nc(N)nc(CN(C)C3CCCCC3)n2)cc1`, the inhibition amounted to 0%.

`COc1ccc(-c2cn3c4ccccc4nc3n2CCCN2CCOCC2)cc1` returned an inhibition of 0%. The same measure, in the same setting: the result for `COc1cc(C(=O)Oc2ccc(N(Cc3cccs3)C3=NS(=O)(=O)c4ccccc43)cc2)cc(OC)c1OC` reads 10%. Turning to `COc1cc(CN(CCCn2ccnc2)C(=O)c2cc3sccc3n2C)cc(OC)c1`, the inhibition was determined as 0%.

Compound `CCCn1c(-c2ccc(-c3ccccc3)cc2)c(C(C)=O)n2c3ccccc3nc12` displayed an inhibition of 18%.

In turn, `CCOc1ccc(NC2=NS(=O)(=O)c3cc([N+](=O)[O-])ccc32)cc1` returned an inhibition of 4%.

Compound `O=C(Nc1ccccc1)c1c(-c2ccccc2)n(Cc2ccccc2)c2nc3ccccc3n12` had an inhibition of 15%. In the case of `COc1ccccc1Nc1nc(N)nc(CN(C)C2CCCCC2)n1`, the inhibition amounted to 0%. As to `COc1ccccc1CN(C(=O)c1cc2sccc2n1C)C1CC(C)(C)NC(C)(C)C1`, the inhibition is 3%.

As to `CCOc1ccc(Nc2nc(N)nc(CN(C)C3CCCCC3)n2)cc1`, the inhibition was found to be 3%.
